Here are results for four compounds from patent publication US5945440A, “Indolocarbazole imides and the use thereof” (priority 1992, dated 1999).

SMILES strings stand for the structures. A value given as a limit tells only on which side of the number the result lay.

The IC50 is the midpoint of a concentration-inhibition curve. One may read the inhibition as the percentage by which the read-out fell short of the control. Lower therefore signals little suppression.

The conditions of data set [1]: literature / other filings; cited from earlier work.
The subject of data set [2] is human tumour cells, pancreas 1. Put plainly: colony formation of human tumour cells: pancreas 1. The class given is cell-based. The procedure:
(§1) For this test, human tumour cells are kept as solid tumour by passage on the nude mouse. For the test, an individual cell suspension is prepared and the cells then plated out in dishes containing soft agar. Under these conditions, the tumour cells multiply and form colonies.

Data set [3] concerns HIV. The experiment in a line: phorbol ester-induced HIV reactivation, HIV-induced syncytia formation with indicator cell. The class given is cell-based. The conditions noted are these: Human immunodeficiency virus 1; U1 cells, PMA stimulation; average value; n = 2; read-out: inhibition of the HIV production IC50, syncytia formation. On the procedure:
(§2) In the case of the establishment of this hypothesis, use was made of the promonocytic cell line U1.
(§3) Without stimulation, no formation of HIV can be measured in these cells but, after 15 minutes stimulation with the phorbol ester PMA, it results in a massive production of HIV.
(§4) Some of the PKC inhibitors according to the present invention were investigated in this model. As a measure for the HIV production, either with the help of an ELISA test there was determined the viral protein p24 or with the help of an indicator cell, there was measured the HIV-induced formation of syncytia (giant cells produced by the fusion of individual cells).

Data set [4] deals with HIV. The experiment in a line: HIV production in PMA-stimulated promonocytic U1 cells (both methods). In kind it is cell-based. To be noted: both test methods. The procedure: as §2, §3, §4
The test system of data set [5] is human tumour cells, gastric 1. The experiment in a line: colony formation of human tumour cells: gastric 1. The class given is cell-based. The procedure:
as §1

In data set [6] the test system is human tumour cells, ovarian 3. The experiment in a line: colony formation of human tumour cells: ovarian 3. In kind it is cell-based. The procedure: as §1
In the next data set the target is protein kinase C. Put plainly: inhibition of protein kinase C, enzyme test. In kind it is biochemical. The conditions noted are these: read-out: inhibition of the protein kinases, C-kinase IC50. The procedure: In order to ascertain whether it is a question of a selective inhibition of MLC kinase, the compounds were also investigated in other enzyme tests for protein kinase, including tests for protein kinase C. The results from the PKC test are also given in the following Table I. Furthermore, the Table contains selectivity factors which were calculated by the determination of the ratios of the IC50 values.

The test system of data set [7] is HIV. Put plainly: phorbol ester-induced HIV reactivation, viral protein p24 by ELISA. The class given is cell-based. To be noted: Human immunodeficiency virus 1; U1 cells, PMA stimulation; average value ± SD; n = 3; read-out: inhibition of the HIV production IC50, p24 expression. On the procedure:
as §2, §3, §4
Background: ELISA stands for enzyme-linked immunosorbent assay.

The test system of data set [8] is human tumour cells, ovarian 2. Put plainly: colony formation of human tumour cells: ovarian 2. The class given is cell-based. The procedure:
as §1

For data set [9], the system named is human tumour cells, gastric 2. The experiment in a line: colony formation of human tumour cells: gastric 2. In kind it is cell-based. On the procedure:
as §1

Data set [10] relates to human tumour cells, colon. Put plainly: colony formation of human tumour cells: colon. In kind it is cell-based. On the procedure:
as §1

Data set [11] concerns human tumour cells, melanoma 2. Put plainly: colony formation of human tumour cells: melanoma 2. The class given is cell-based. The procedure: as §1
Data set [12] has as its system human tumour cells, ovarian 1. The experiment in a line: colony formation of human tumour cells: ovarian 1. The class given is cell-based. On the procedure: as §1
Data set [13] deals with human tumour cells, melanoma 1. Put plainly: colony formation of human tumour cells: melanoma 1. The class given is cell-based. The procedure:
as §1

The subject of data set [14] is human tumour cells, lung (small cell 1). The experiment in a line: colony formation of human tumour cells: lung (small cell 1). In kind it is cell-based. The procedure: as §1
Data set [15] concerns human tumour cells, melanoma 3. Put plainly: colony formation of human tumour cells: melanoma 3. In kind it is cell-based. On the procedure: as §1
Data set [16] relates to human tumour cells, colorectal 1. Put plainly: colony formation of human tumour cells: colorectal 1. The class given is cell-based. The procedure:
as §1

Data set [17] has as its system human tumour cells. The experiment in a line: colony test, human tumour cells in soft agar (tumour types in general). To be noted: certain tumour types. In kind it is cell-based. The procedure: as §1
Data set [18] has as its system promonocytic cell line U1. The experiment in a line: control experiments for cytotoxic action in the HIV model. In kind it is cell-based.
Data set [19] concerns human tumour cells, prostata 1. Put plainly: colony formation of human tumour cells: prostata 1. The class given is cell-based. On the procedure:
as §1

In data set [20] the target is T1, MLC kinase (myosin light-chain kinase) (Gallus gallus, UniProt P11799).
T1 construct: MLC kinase was purified from chicken stomach; from tissue; host or cells: chicken stomach (gizzard smooth muscle)
The experiment in a line: inhibition of MLC kinase, in vitro enzyme test (32P phosphate incorporation). In kind it is biochemical, chicken (stomach).
Description: Inhibition of the enzyme MLC kinase (EC 3.6.1.3; kinase of the light myosin chain; myosin light-chain kinase).
The inhibition of MLC kinase was measured in an in vitro enzyme test.
The reaction was initiated by the addition of 1 nM MLC kinase. After incubation for 20 minutes at 30° C., the reaction was stopped with TCA and the samples then filtered off. The phosphate incorporation took place by means of Cerenkov counting of the filter.

In data set [21] the test system is human tumour cells, lung (large cell). The experiment in a line: colony formation of human tumour cells: lung (large cell). In kind it is cell-based. The procedure:
as §1

The test system of data set [22] is human tumour cells. To be noted: general statement on the colony test; cited from earlier work.
A further data set concerns protein kinases. The conditions noted are these: Bio/Technology, 1990, 8, 132-135; cited from earlier work.

T1 sequence (P11799 935-1906): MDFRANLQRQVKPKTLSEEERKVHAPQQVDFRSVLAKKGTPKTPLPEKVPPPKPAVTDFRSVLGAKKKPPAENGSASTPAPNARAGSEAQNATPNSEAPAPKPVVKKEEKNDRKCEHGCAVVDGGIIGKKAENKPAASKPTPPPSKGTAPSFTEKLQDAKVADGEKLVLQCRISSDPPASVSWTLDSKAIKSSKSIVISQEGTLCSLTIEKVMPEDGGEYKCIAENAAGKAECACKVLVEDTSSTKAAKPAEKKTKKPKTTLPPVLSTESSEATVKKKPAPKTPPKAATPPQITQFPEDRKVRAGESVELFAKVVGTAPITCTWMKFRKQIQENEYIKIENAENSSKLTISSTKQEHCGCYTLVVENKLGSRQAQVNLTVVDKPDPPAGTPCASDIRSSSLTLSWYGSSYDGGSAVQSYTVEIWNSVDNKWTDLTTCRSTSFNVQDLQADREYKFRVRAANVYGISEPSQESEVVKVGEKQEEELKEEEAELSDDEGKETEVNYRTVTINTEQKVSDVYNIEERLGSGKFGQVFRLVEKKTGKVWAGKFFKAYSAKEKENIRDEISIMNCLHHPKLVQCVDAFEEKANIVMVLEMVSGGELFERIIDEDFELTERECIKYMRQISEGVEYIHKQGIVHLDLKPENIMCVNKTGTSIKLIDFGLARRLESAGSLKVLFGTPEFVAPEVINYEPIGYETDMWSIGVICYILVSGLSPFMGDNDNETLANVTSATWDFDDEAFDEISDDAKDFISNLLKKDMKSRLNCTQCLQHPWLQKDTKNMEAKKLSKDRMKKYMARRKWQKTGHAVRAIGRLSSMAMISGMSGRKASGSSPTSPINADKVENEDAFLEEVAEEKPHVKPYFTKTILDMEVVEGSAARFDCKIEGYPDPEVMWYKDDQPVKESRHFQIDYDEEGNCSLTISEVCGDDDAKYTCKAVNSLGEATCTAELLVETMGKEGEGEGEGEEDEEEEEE

In the case of `O=C1NC(=O)c2c1c1c3cccc(O)c3[nH]c1c1[nH]c3c(O)cccc3c21` [BE-13193C], the “anti-tumour action, in words” value in data set [1] was “antitumour action”.

Take `CN(C)CCCn1c2ccc(O)cc2c2c3c(c4c5cc(O)ccc5[nH]c4c21)C(=O)NC3=O` [Example 2c]: the IC50 in data set [2] was 1500 nM; in the data set with HIV [3], 29 nM; in [5] it was 1200 nM; in [6], less than 100 nM; at protein kinase C, 14 nM; in the data set with HIV [7], 36 ± 15 nM. Further, the IC50 in [8] is 2600 nM; in data set [9], less than 100 nM; in data set [10], 1700 nM; in data set [11], less than 100 nM; in [12] it was 200 nM; in data set [13], 120 nM. Further, the half-maximal inhibitory concentration (IC50) in data set [14] was less than 100 nM; in data set [15], 210 nM; in data set [16] it was 6000 nM; in data set [19] it was 200 nM; in data set [20] (1 nM MLC kinase, 250 μM ATP, pH 7.2, 20 minutes at 30° C., read-out: inhibition of the protein kinases, MLC-kinase IC50) it was 6.1 nM; in data set [21] it was less than 100 nM. Also, the inhibition at 10 µM came out at 83% in [2] (10^-5 M); 99% in [5] (10^-5 M); 99% in data set [6] (10^-5 M); 75% in data set [8] (10^-5 M); 77% in data set [9] (10^-5 M); 94% in [10] (10^-5 M). For the same compound, the inhibition at 10 µM in [11] (10^-5 M) was 97%; in data set [12] (10^-5 M) it was 96%; in data set [13] (10^-5 M), 89%; in data set [14] (10^-5 M), 97%; in data set [15] (10^-5 M), 73%; in [16] (10^-5 M) it was 62%. Also, the inhibition at 10 µM in [19] (10^-5 M) stood at 98%; in [21] (10^-5 M), 100%. Also, the inhibition at 1 µM in data set [2] (10^-6 M) is 44%; in [5] (10^-6 M) it was 47%; in data set [6] (10^-6 M), 94%; in [8] (10^-6 M), 33%; in data set [9] (10^-6 M), 66%; in data set [10] (10^-6 M), 37%. Moreover, the inhibition at 1 µM in [11] (10^-6 M) is 99%; in data set [12] (10^-6 M) it was 75%; in [13] (10^-6 M), 81%; in data set [14] (10^-6 M) it was 97%; in data set [15] (10^-6 M) it was 76%; in [16] (10^-6 M), 8%. In addition, the inhibition at 1 µM in data set [19] (10^-6 M) worked out at 99%; in [21] (10^-6 M), 100%. Further, the inhibition at 0.1 µM is 38% in [2] (10^-7 M); 29% in data set [5] (10^-7 M); 74% in data set [6] (10^-7 M); 5% in data set [8] (10^-7 M); 65% in data set [9] (10^-7 M); 8% in [10] (10^-7 M). Further, the inhibition at 0.1 µM in [11] (10^-7 M) came out at 90%; in data set [12] (10^-7 M), 40%; in data set [13] (10^-7 M), 48%; in [14] (10^-7 M), 82%; in data set [15] (10^-7 M), 38%; in [16] (10^-7 M) it was 0%. Moreover, the inhibition at 0.1 µM was 29% in [19] (10^-7 M) and 97% in [21] (10^-7 M). The “anti-HIV action, in words” value in the data set with HIV [4] was “an anti-HIV action could be demonstrated”. In the data set with human tumour cells [17], the “inhibition of tumour cell growth, in words” value is “the growth of the tumour cells can be inhibited depending upon the concentration”. The “cytotoxic action as cause of the anti-HIV action, in words” value in [18] is “the anti-HIV action did not come about due to a cytotoxic action”. The “ratio of IC50 C-kinase/IC50 MLC-kinase” value in data set [20] (selectivity factor calculated from the IC50 values) was 2.3.

As to `COc1cccc2c1C(=O)c1c(O)c3c(c(O)c1C2=O)C[C@@](O)(C(=O)CO)C[C@@H]3O[C@H]1C[C@H](N)[C@H](O)[C@H](C)O1` [adriamycin], the “prevention of colony formation, in words” value in the data set on human tumour cells [22] is reported as “able to prevent this colony formation”.

`CO[C@H]1[C@H](O)[C@@H](O)[C@H](n2c3c(Cl)cccc3c3c4c(c5c6cccc(Cl)c6[nH]c5c32)C(=O)NC4=O)O[C@@H]1CO` [rebeccamycin]: the “inhibition of protein kinases, in words” value in the data set on protein kinases is recorded as “do not inhibit protein kinases”. Besides, the “anti-tumour action, in words” value in data set [1] is listed as “anti-tumour action”.
